{
  "source": "the supplement of paper PMC10307832",
  "experiment_in_all_cases": "relative viability (nuclei count vs DMSO), 5 days (fraction); higher = more cells survive",
  "key": {"UMC-11": {"system": "UMC-11", "method_in_brief": "(§1)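 Dosing by pin tool came one day after lung cancer cell lines were seeded in 1536-well plates, using either one drug or a fixed anchor-drug dose plus five library-drug doses (not always all listed) in √10 steps. After 5 days, nuclei were counted on 4× images. Relative viability is treated-well nuclei count divided by vehicle-well nuclei count, and values are medians of duplicate plates.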"}, "ABC-1": {"system": "ABC-1", "method_in_brief": "as §1"}, "HOP-62": {"system": "HOP-62", "method_in_brief": "as §1"}, "NCI-H2085": {"system": "NCI-H2085", "method_in_brief": "as §1"}, "NCI-H1975": {"system": "NCI-H1975", "method_in_brief": "as §1"}, "COR-L 105": {"system": "COR-L 105", "method_in_brief": "as §1"}, "EMC-BAC-2": {"system": "EMC-BAC-2", "method_in_brief": "as §1"}, "NCI-H1915": {"system": "NCI-H1915", "method_in_brief": "as §1"}, "NCI-H322M": {"system": "NCI-H322M", "method_in_brief": "as §1"}, "NCI-H358": {"system": "NCI-H358", "method_in_brief": "as §1"}, "NCI-H3122": {"system": "NCI-H3122", "method_in_brief": "as §1"}},
  "data": [
    {"molecule": "Nc1ccn([C@@H]2O[C@H](CO)[C@@H](O)[C@@H]2O)c(=O)n1", "note": "[Cytarabine] + Nc1ncn([C@H]2C[C@H](O)[C@@H](CO)O2)c(=O)n1 [Decitabine] (partner 2 µM)", "values": [
      {"measurement": "relative viability", "setting": "UMC-11; first compound 0.005 µM", "value": 0.547},
      {"measurement": "relative viability", "setting": "UMC-11; first compound 0.01581 µM", "value": 0.521},
      {"measurement": "relative viability", "setting": "UMC-11; first compound 0.05 µM", "value": 0.328},
      {"measurement": "relative viability", "setting": "UMC-11; first compound 0.1581 µM", "value": 0.32},
      {"measurement": "relative viability", "setting": "UMC-11; first compound 0.5 µM", "value": 0.306},
      {"measurement": "relative viability", "setting": "ABC-1; first compound 0.005 µM", "value": 1.13},
      {"measurement": "relative viability", "setting": "ABC-1; first compound 0.01581 µM", "value": 1.02},
      {"measurement": "relative viability", "setting": "ABC-1; first compound 0.05 µM", "value": 0.925},
      {"measurement": "relative viability", "setting": "ABC-1; first compound 0.1581 µM", "value": 0.786},
      {"measurement": "relative viability", "setting": "ABC-1; first compound 0.5 µM", "value": 0.611},
      {"measurement": "relative viability", "setting": "HOP-62; first compound 0.005 µM", "value": 0.222},
      {"measurement": "relative viability", "setting": "HOP-62; first compound 0.01581 µM", "value": 0.189},
      {"measurement": "relative viability", "setting": "HOP-62; first compound 0.05 µM", "value": 0.179},
      {"measurement": "relative viability", "setting": "HOP-62; first compound 0.1581 µM", "value": 0.162},
      {"measurement": "relative viability", "setting": "HOP-62; first compound 0.5 µM", "value": 0.126},
      {"measurement": "relative viability", "setting": "NCI-H2085; first compound 0.005 µM", "value": 0.491},
      {"measurement": "relative viability", "setting": "NCI-H2085; first compound 0.01581 µM", "value": 0.512},
      {"measurement": "relative viability", "setting": "NCI-H2085; first compound 0.05 µM", "value": 0.518},
      {"measurement": "relative viability", "setting": "NCI-H2085; first compound 0.1581 µM", "value": 0.483},
      {"measurement": "relative viability", "setting": "NCI-H2085; first compound 0.5 µM", "value": 0.559},
      {"measurement": "relative viability", "setting": "NCI-H1975; first compound 0.005 µM", "value": 0.336},
      {"measurement": "relative viability", "setting": "NCI-H1975; first compound 0.01581 µM", "value": 0.353},
      {"measurement": "relative viability", "setting": "NCI-H1975; first compound 0.05 µM", "value": 0.562},
      {"measurement": "relative viability", "setting": "NCI-H1975; first compound 0.1581 µM", "value": 0.271},
      {"measurement": "relative viability", "setting": "NCI-H1975; first compound 0.5 µM", "value": 0.257},
      {"measurement": "relative viability", "setting": "COR-L 105; first compound 0.005 µM", "value": 0.623},
      {"measurement": "relative viability", "setting": "COR-L 105; first compound 0.01581 µM", "value": 0.642},
      {"measurement": "relative viability", "setting": "COR-L 105; first compound 0.05 µM", "value": 0.426},
      {"measurement": "relative viability", "setting": "COR-L 105; first compound 0.1581 µM", "value": 0.398},
      {"measurement": "relative viability", "setting": "COR-L 105; first compound 0.5 µM", "value": 0.303},
      {"measurement": "relative viability", "setting": "EMC-BAC-2; first compound 0.005 µM", "value": 0.943},
      {"measurement": "relative viability", "setting": "EMC-BAC-2; first compound 0.01581 µM", "value": 0.836},
      {"measurement": "relative viability", "setting": "EMC-BAC-2; first compound 0.05 µM", "value": 0.597},
      {"measurement": "relative viability", "setting": "EMC-BAC-2; first compound 0.1581 µM", "value": 0.315},
      {"measurement": "relative viability", "setting": "EMC-BAC-2; first compound 0.5 µM", "value": 0.332},
      {"measurement": "relative viability", "setting": "NCI-H1915; first compound 0.005 µM", "value": 0.248},
      {"measurement": "relative viability", "setting": "NCI-H1915; first compound 0.01581 µM", "value": 0.289},
      {"measurement": "relative viability", "setting": "NCI-H1915; first compound 0.05 µM", "value": 0.269},
      {"measurement": "relative viability", "setting": "NCI-H1915; first compound 0.1581 µM", "value": 0.231},
      {"measurement": "relative viability", "setting": "NCI-H1915; first compound 0.5 µM", "value": 0.227},
      {"measurement": "relative viability", "setting": "NCI-H322M; first compound 0.005 µM", "value": 0.687},
      {"measurement": "relative viability", "setting": "NCI-H322M; first compound 0.01581 µM", "value": 0.608},
      {"measurement": "relative viability", "setting": "NCI-H322M; first compound 0.05 µM", "value": 0.472},
      {"measurement": "relative viability", "setting": "NCI-H322M; first compound 0.1581 µM", "value": 0.472},
      {"measurement": "relative viability", "setting": "NCI-H322M; first compound 0.5 µM", "value": 0.448},
      {"measurement": "relative viability", "setting": "NCI-H358; first compound 0.005 µM", "value": 0.229},
      {"measurement": "relative viability", "setting": "NCI-H358; first compound 0.01581 µM", "value": 0.205},
      {"measurement": "relative viability", "setting": "NCI-H358; first compound 0.05 µM", "value": 0.226},
      {"measurement": "relative viability", "setting": "NCI-H358; first compound 0.1581 µM", "value": 0.133},
      {"measurement": "relative viability", "setting": "NCI-H358; first compound 0.5 µM", "value": 0.107},
      {"measurement": "relative viability", "setting": "NCI-H3122; first compound 0.005 µM", "value": 0.459},
      {"measurement": "relative viability", "setting": "NCI-H3122; first compound 0.01581 µM", "value": 0.383}
    ]}
  ]
}
